Data published in patent publication US20130131156A1, “Cancer Treatment with Wortmannin Analogs” (ONCOTHYREON INC., priority 2010, published 2013).

What was measured:
PIK3CA (p110α) = PIK3CA (p110α) (Homo sapiens, UniProt P42336); assay: PI-3K isoform inhibition, p110α (PIK3CA); the text calls it cell based; conditions: cell proliferation assays versus p110α and p110β isoforms
Description: PX-866 is an pan-isoform inhibitor of Class I P1-3K that covalently binds to ATP binding site of the p110 catalytic subunit.

[1] = Phase I trial of oral PX-866: clinical pharmacokinetics; format: in vivo, human
[2] = Phase I trial of oral PX-866: safety, DLT and MTD; format: in vivo, human; conditions: for Maximal Tolerated Dose (MTD): oral
Method: (§1) This was an Open-label dose escalation study with expansion cohort at Maximal Tolerated Dose (MTD), 3+3 design and to test efficacy of 2 dosing schedules (intermittent and continuous). PX-866 was administered as an oral dose.
The primary and secondary objectives were tested using two different dosing regimens: 10 days of drug administration and daily administration for 28 days.
Intermittent schedule: 10 dose levels tested (0.5-16 mg). The starting dose level was 0.5 mg. Doses increased as follows: 100% escalation up to 2 mg, 50% escalation up to 4.5 mg, and approximately 30% escalation until the MTD is identified. The highest dose level at which no more than 1/6 patients experiences DLT was declared the MTD. The resulting dose levels were: 0.5, 1, 2, 3, 4.5, 6, 8, 10, 12 and 16 mg.
FIG. 1 illustrates the dosing schedule for intermittent dosing where PX-866 was given to patients on days 1-5 and 8-12 of a 28-day cycle.
Continuous dosing schedule: The starting dose was two dose levels below the MTD of intermittent dosing (8 mg) and subsequent dose levels was one or two dose levels (10 mg or 8 mg) below the MTD of intermittent dosing dependent on recommendation of the dose cohort review committee. FIG. 1 illustrates the dosing schedule for continuous dosing.

advanced solid tumors = assay: Phase I trial of oral PX-866: tumor response by RECIST; format: in vivo, human; conditions: 1 to 7 prior treatments, median 4 prior systemic regimens
Method: as §1
Patient response was evaluated according to Response Evaluation Criteria in Solid Tumors (RECIST). Briefly, all measurable lesions up to a maximum of five lesions, representative of all involved organs were identified as target lesions and recorded and measured at baseline. Target lesions were selected on the basis of their size (lesions with the longest diameter) and their suitability for accurate repeated measurements (either by imaging techniques or clinically). A sum of the longest diameter (LD) for all target lesions was calculated and reported as the baseline sum LD. The baseline sum LD was used as reference by which to characterize the objective tumor. All other lesions (or sites of disease) were identified as non-target lesions and were also be recorded at baseline. Measurements of these lesions were not required, but the presence or absence of each was noted throughout follow-up.
A Complete Response (CR) indicated a disappearance of all target lesions.

PI-3K pathway = assay: Clinical pharmacodynamics: PBMCs stimulated ex vivo, FACS based assay (p-mTOR, p-S6); format: in vivo, human; conditions: PBMCs of treated patients stimulated ex vivo
Method: The pharmacodynamic effects of PX-866 in patients treated in the phase I single agent study were assessed using isolated peripheral blood mononuclear cells (PBMCs) stimulated ex vivo via FACS based assay. […] The study provided Evidence for pathway inhibition lasting up to 3 days post-treatment.

p-AKT/T-AKT = assay: Clinical pharmacodynamics: p-AKT/T-AKT after a single oral dose; format: in vivo, human; conditions: 3 of 4 patients, 8 mg dose level, 4 hours after a single oral dose

PIK3CA (p110α), sequence (P42336 whole entry, canonical isoform): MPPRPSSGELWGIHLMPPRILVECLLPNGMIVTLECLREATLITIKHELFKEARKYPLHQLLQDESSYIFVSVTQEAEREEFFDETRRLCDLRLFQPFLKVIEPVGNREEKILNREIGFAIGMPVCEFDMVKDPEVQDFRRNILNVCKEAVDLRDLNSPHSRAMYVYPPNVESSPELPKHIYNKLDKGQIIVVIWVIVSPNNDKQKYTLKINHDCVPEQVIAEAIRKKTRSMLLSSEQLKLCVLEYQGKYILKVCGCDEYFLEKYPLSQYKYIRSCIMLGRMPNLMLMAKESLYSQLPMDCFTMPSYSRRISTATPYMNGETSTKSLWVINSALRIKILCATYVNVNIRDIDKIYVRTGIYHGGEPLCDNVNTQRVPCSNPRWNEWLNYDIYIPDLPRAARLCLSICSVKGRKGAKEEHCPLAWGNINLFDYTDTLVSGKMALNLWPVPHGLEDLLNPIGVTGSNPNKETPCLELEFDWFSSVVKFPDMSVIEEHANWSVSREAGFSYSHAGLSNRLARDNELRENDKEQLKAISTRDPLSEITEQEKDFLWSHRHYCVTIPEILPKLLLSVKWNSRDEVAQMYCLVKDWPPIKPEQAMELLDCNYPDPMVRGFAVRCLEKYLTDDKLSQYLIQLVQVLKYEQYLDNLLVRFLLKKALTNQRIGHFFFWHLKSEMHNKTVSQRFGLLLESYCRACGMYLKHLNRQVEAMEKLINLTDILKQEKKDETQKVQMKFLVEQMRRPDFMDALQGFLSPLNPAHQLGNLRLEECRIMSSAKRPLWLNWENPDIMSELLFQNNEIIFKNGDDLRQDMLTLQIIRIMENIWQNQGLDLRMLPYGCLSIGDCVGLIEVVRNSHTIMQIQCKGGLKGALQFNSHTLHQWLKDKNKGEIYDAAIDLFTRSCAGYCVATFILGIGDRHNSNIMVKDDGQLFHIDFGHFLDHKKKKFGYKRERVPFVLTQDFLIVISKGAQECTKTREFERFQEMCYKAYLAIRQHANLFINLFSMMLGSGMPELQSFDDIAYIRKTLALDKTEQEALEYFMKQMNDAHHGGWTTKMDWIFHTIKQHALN
PIK3CA (p110α), sequence (P27986 whole entry partner, canonical isoform): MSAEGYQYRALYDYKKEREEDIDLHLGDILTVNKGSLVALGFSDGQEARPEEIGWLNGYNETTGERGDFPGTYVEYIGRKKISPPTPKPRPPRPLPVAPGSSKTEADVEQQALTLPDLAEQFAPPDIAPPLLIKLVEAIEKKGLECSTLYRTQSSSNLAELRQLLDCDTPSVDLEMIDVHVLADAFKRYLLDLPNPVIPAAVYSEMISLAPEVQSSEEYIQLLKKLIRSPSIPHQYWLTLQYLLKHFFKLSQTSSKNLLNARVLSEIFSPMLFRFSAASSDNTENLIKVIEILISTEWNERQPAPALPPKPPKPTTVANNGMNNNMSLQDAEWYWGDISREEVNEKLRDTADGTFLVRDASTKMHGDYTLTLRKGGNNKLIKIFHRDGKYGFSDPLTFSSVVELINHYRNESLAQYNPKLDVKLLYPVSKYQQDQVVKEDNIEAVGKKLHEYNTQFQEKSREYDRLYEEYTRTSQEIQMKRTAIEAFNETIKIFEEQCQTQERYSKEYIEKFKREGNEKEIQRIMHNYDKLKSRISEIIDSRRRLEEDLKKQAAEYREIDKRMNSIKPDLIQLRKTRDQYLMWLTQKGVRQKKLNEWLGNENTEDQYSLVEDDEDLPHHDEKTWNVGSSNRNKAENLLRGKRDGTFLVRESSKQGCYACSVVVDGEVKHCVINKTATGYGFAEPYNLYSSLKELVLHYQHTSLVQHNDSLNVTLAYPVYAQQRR

| Structure (SMILES) | increase in potency versus the parent PX-866 (PIK3CA (p110α)) | AUC in humans compared with mice ([1]; due to an increase in mean residence time in humans) | Maximal Tolerated Dose (MTD) ([2]; continuous daily dosing) [mg per day] | ALT/AST ([2]; continuous dosing) | Most common adverse events ([2]; continuous dosing) | Related Grade 3 events ([2]; continuous dosing section) | Dose limiting toxicity (DLT), patients affected ([2]; continuous dosing, 10 mg per day, Grade 3 diarrhea (n=2)) | Most common adverse events ([2]; intermittent dosing) | Related Grade 3 events ([2]; intermittent dosing) | Dose limiting toxicity (DLT), patients affected ([2]; intermittent dosing, 16 mg per day, Grade 3 diarrhea (n=1), Grade 3 AST (n=1)) | Maximal Tolerated Dose (MTD) ([2]; intermittent dosing, days 1-5 and 8-12 of a 28-day cycle) [mg per day] | toxicity in patients receiving >2 cycles ([2]; printed in the continuous dosing section but worded intermittent dosing schedule) | effect on disease in prior treated patients (advanced solid tumors) | plasma level of parent PX-866 ([1]; after oral PX-866, with rare exceptions) | effect on the PI-3K pathway (p-mTOR, p-S6) (PI-3K pathway) | decrease in p-AKT/T-AKT (p-AKT/T-AKT) [%] |
| --- | --- | --- | --- | --- | --- | --- | --- | --- | --- | --- | --- | --- | --- | --- | --- | --- |
| C=CCN(C=C1C(=O)OC(COC)C2(C)C1=C(O)C(=O)C1=C2C(OC(C)=O)CC2(C)C(O)CCC12)CC=C (stereo not shown) [17-OH PX-866] | 2-5 fold | exceeded AUC in mice |  |  |  |  |  |  |  |  |  |  |  |  |  |  |
| C=CCN(/C=C1/C(=O)O[C@H](COC)[C@@]2(C)C1=C(O)C(=O)C1=C2[C@H](OC(C)=O)C[C@]2(C)C(=O)CC[C@@H]12)CC=C [PX-866, Acetic acid 4-diallylaminomethylene-6-hydroxy-1-α-methoxymethyl-10β,13β-dimethyl-3,7,17-trioxo-1,3,4,7,10,11β,12,13,14α,15,16,17-dodecahydro-2-oxa-cyclopenta[α]phenanthren-11-yl ester] |  |  | 8 | ALT/AST elevation was observed | diarrhea, nausea, vomiting, headache and fatigue | vomiting (n=3), diarrhea (n=3), liver enzyme elevation (n=2) dehydration (n=1), worsened hypertension (n=1) | 2/3 | diarrhea, nausea, vomiting, and constipation | vomiting (n=3), diarrhea (n=3), liver enzyme elevation (n=2) dehydration (n=1), and worsened hypertension (n=1) | 2/5 | 12 | No significant increase in toxicity | stabilized disease | below the limits of detection | inhibition of the PI-3K pathway | ≥ 60 |
